Data set [1] in a line: Evaluation of absorption maximum and absorbance ratio (500 nm/λmax) in solution. To be noted: for Absorbance Ratio (500 nm/λmax) / Absorption Maximum (nm): solvent chloroform; for λmax (nm) of Second Near Infrared Absorbing Compound: as listed in Table 58. In kind it is physicochemical. An excerpt:
In this specification, “having an absorption maximum in a wavelength range of 650 to 1000 nm” denotes having a maximum absorbance in a wavelength range of 650 to 1000 nm in an absorption spectrum of the near infrared absorbing compound in a solution. Examples of a measurement solvent used for the measurement of the absorption spectra of the near infrared absorbing compound in the solution include chloroform, methanol, dimethyl sulfoxide, ethyl acetate, and tetrahydrofuran. In the case of a compound which is soluble in chloroform, chloroform is used as the measurement solvent. In the case of a compound which is not soluble in chloroform, methanol is used. In addition, In the case of a compound which is not soluble in chloroform and methanol, dimethyl sulfoxide is used.
Each of the compounds was dissolved in a measurement solvent shown in the following tables (concentration: 2.5×10^−6 mol/L) to measure an absorption spectrum (optical path length: 10 mm).
In addition, an absorbance ratio (500 nm/λmax) as a value obtained by dividing an absorbance at a wavelength of 500 nm by an absorbance at an absorption maximum was evaluated based on the following criteria.
A: the absorbance ratio (500 nm/λmax) was 0.04 or lower
B: the absorbance ratio (500 nm/λmax) was higher 0.04 and 0.08 or lower
C: the absorbance ratio (500 nm/λmax) was higher than 0.08

Data set [2] can be described thus: Evaluation of solubility in water at 23° C. In kind it is physicochemical. The conditions noted are these: stirred for 1 hour. On the procedure: Each of the compounds was added to water at 23° C. under the atmospheric pressure, the components were stirred for 1 hour, and the solubility of the compound in water was obtained. The solubility of the compound was evaluated based on the following criteria.
A: the solubility in water at 23° C. was 0.1 mass % or lower
B: the solubility in water at 23° C. was higher than 0.1 mass % and 1 mass % or lower
C: the solubility in water at 23° C. was higher than 1 mass %

These results are taken from US10947389B2, “Composition, film, near infrared cut filter, laminate, pattern forming method, solid image pickup element, image display device, infrared sensor, and color filter” (FUJIFILM Corporation, priority 2016, dated 2021).

Turning to `CC(C)CCCCCCCC(CCCCCC(C)C)COc1ccc(-c2c3c(=C(C#N)c4cnc5ccccc5n4)n(B(c4ccccc4)c4ccccc4)c(-c4ccc(OCC(CCCCCCCC(C)C)CCCCCC(C)C)cc4)c3c(=C(C#N)c3cnc4ccccc4n3)n2B(c2ccccc2)c2ccccc2)cc1` (stereo not drawn) [III-9], in data set [1], the “Absorbance Ratio (500 nm/λmax)” value was “A (the absorbance ratio (500 nm/λmax) was 0.04 or lower)” and the “Absorption Maximum (nm)” value was 863 nm. Further, the Solubility entry in data set [2] was “A (the solubility in water at 23 °C was 0.1 mass % or lower)”.

Take `CC(C)CCCCCCCC(CCCCCC(C)C)COc1ccc(-c2c3c(=C(C#N)c4nc5ccccc5n4C)n(B(c4ccccc4)c4ccccc4)c(-c4ccc(OCC(CCCCCCCC(C)C)CCCCCC(C)C)cc4)c3c(=C(C#N)c3nc4ccccc4n3C)n2B(c2ccccc2)c2ccccc2)cc1` (stereo not drawn) [II-697]: in data set [1], the “Absorbance Ratio (500 nm/λmax)” value is “A (the absorbance ratio (500 nm/λmax) was 0.04 or lower)” and the “Absorption Maximum (nm)” value is listed as 743 nm. Also, the Solubility result in data set [2] is “A (the solubility in water at 23 °C was 0.1 mass % or lower)”.

Turning to `Cc1ccc2oc(C(C#N)=c3c4c(-c5cccc(OCC(CCCCCCCC(C)C)CCCCCC(C)C)c5)n(B5Oc6cc7ccccc7cc6O5)c(=C(C#N)c5nc6cc(C)ccc6o5)c4c(-c4cccc(OCC(CCCCCCCC(C)C)CCCCCC(C)C)c4)n3B3Oc4cc5ccccc5cc4O3)nc2c1` (stereo not drawn) [II-274], in data set [1], the “λmax (nm) of Second Near Infrared Absorbing Compound” value (shortened to “λmax (nm)”) worked out at 685 nm, the “Absorbance Ratio (500 nm/λmax)” value is listed as “A (the absorbance ratio (500 nm/λmax) was 0.04 or lower)” and the “Absorption Maximum (nm)” value is 685 nm. Further, in data set [2], the Solubility entry was “A (the solubility in water at 23 °C was 0.1 mass % or lower)”.

As for `CC(CCC(COc1cccc(-c2[nH]/c(=C(/C#N)c3cnc4ccccc4n3)c3c(-c4cccc(OCC(CCC(C)CC(C)(C)C)C(C)CC(C)(C)C)c4)[nH]/c(=C(/C#N)c4cnc5ccccc5n4)c23)c1)C(C)CC(C)(C)C)CC(C)(C)C` (stereo not drawn) [PP-1], in data set [1], the “Absorbance Ratio (500 nm/λmax)” value was “B (the absorbance ratio (500 nm/λmax) was higher 0.04 and 0.08 or lower)”; the “Absorption Maximum (nm)” value turned out to be 739 nm. The Solubility result in data set [2] was “A (the solubility in water at 23 °C was 0.1 mass % or lower)”.

`CCCCN1/C(=C/C2=C([O-])C(=C/c3sc4c5ccccc5ccc4[n+]3CCCC)/C2=O)Sc2c1ccc1ccccc21` [Compound Q-54]: in data set [1], the “Absorbance Ratio (500 nm/λmax)” value is “A (the absorbance ratio (500 nm/λmax) was 0.04 or lower)” and the “Absorption Maximum (nm)” value amounted to 698 nm. The Solubility entry in data set [2] is “A (the solubility in water at 23 °C was 0.1 mass % or lower)”.

On to `Cc1ccccc1B(c1ccccc1C)n1c(-c2ccc(OCC(CCC(C)CC(C)(C)C)C(C)CC(C)(C)C)cc2)c2/c(=C(\C#N)c3nc4ccccc4o3)n(B(c3ccccc3C)c3ccccc3C)c(-c3ccc(OCC(CCC(C)CC(C)(C)C)C(C)CC(C)(C)C)cc3)c2/c1=C(\C#N)c1nc2ccccc2o1` (stereo not drawn) [II-44], for which, in data set [1], the “Absorbance Ratio (500 nm/λmax)” value is listed as “A (the absorbance ratio (500 nm/λmax) was 0.04 or lower)” and the “Absorption Maximum (nm)” value amounted to 732 nm. Further, in data set [2], the Solubility entry is “A (the solubility in water at 23 °C was 0.1 mass % or lower)”.

Consider `CC(CCC(COc1ccc(-c2c3c(=C(C#N)c4nc5ccccc5s4)n(B(c4ccccc4)c4ccccc4)c(-c4ccc(OCC(CCC(C)CC(C)(C)C)C(C)CC(C)(C)C)cc4)c3c(=C(C#N)c3nc4ccccc4s3)n2B(c2ccccc2)c2ccccc2)cc1)C(C)CC(C)(C)C)CC(C)(C)C` (stereo not drawn) [II-508], for which, in data set [1], the “Absorbance Ratio (500 nm/λmax)” value is given as “A (the absorbance ratio (500 nm/λmax) was 0.04 or lower)” and the “Absorption Maximum (nm)” value was found to be 780 nm. Further, the Solubility entry in data set [2] was “A (the solubility in water at 23 °C was 0.1 mass % or lower)”.

`Cc1ccccc1B(c1ccccc1C)n1c(-c2ccc(OCC(CCCCCCCC(C)C)CCCCCC(C)C)cc2)c2c(=C(C#N)c3nc4ccccc4o3)n(B(c3ccccc3C)c3ccccc3C)c(-c3ccc(OCC(CCCCCCCC(C)C)CCCCCC(C)C)cc3)c2c1=C(C#N)c1nc2ccccc2o1` (stereo not drawn) [II-43]: in data set [1], the “Absorbance Ratio (500 nm/λmax)” value was “A (the absorbance ratio (500 nm/λmax) was 0.04 or lower)” and the “Absorption Maximum (nm)” value was 732 nm. The Solubility result in data set [2] was “A (the solubility in water at 23 °C was 0.1 mass % or lower)”.

With `CCCCC(CC)CC(=O)NC1=CC(=[N+](c2ccc(C)cc2)c2ccc(C)cc2)C=C/C1=C1\C(=O)C(c2ccc(N(c3ccc(C)cc3)c3ccc(C)cc3)cc2NC(=O)CC(CC)CCCC)=C1[O-]` (stereo not drawn) [Compound Q-3], in data set [1], the “Absorbance Ratio (500 nm/λmax)” value is “A (the absorbance ratio (500 nm/λmax) was 0.04 or lower)” and the “Absorption Maximum (nm)” value came to 737 nm. In addition, in data set [2], the Solubility entry is “A (the solubility in water at 23 °C was 0.1 mass % or lower)”.

As to `CCCCCCCCCCC(CCCCCCCC)COc1cccc(-c2c3/c(=C(\C#N)c4nc5ccccc5o4)n(B(c4ccccc4)c4ccccc4)c(-c4cccc(OCC(CCCCCCCC)CCCCCCCCCC)c4)c3/c(=C(\C#N)c3nc4ccccc4o3)n2B(c2ccccc2)c2ccccc2)c1` (stereo not drawn) [II-29], in data set [1], the “λmax (nm)” value worked out at 743 nm, the “Absorbance Ratio (500 nm/λmax)” value is reported as “A (the absorbance ratio (500 nm/λmax) was 0.04 or lower)” and the “Absorption Maximum (nm)” value is on record as 743 nm. The Solubility entry in data set [2] is “A (the solubility in water at 23 °C was 0.1 mass % or lower)”.

As for `Cc1ccc2oc(C(C#N)=c3c4c(-c5ccc(OCC(CCC(C)CC(C)(C)C)C(C)CC(C)(C)C)cc5)n(B(c5ccccc5)c5ccccc5)c(=C(C#N)c5nc6cc(C)ccc6o5)c4c(-c4ccc(OCC(CCC(C)CC(C)(C)C)C(C)CC(C)(C)C)cc4)n3B(c3ccccc3)c3ccccc3)nc2c1` (stereo not drawn) [II-168], in data set [1], the “Absorbance Ratio (500 nm/λmax)” value is listed as “A (the absorbance ratio (500 nm/λmax) was 0.04 or lower)” and the “Absorption Maximum (nm)” value turned out to be 745 nm. In data set [2], the Solubility entry was “A (the solubility in water at 23 °C was 0.1 mass % or lower)”.

Take `CC(C)CCCCCCCC(CCCCCC(C)C)COc1ccc(-c2c3c(=C(C#N)c4nc5cc(Cl)ccc5o4)n(B(c4ccccc4)c4ccccc4)c(-c4ccc(OCC(CCCCCCCC(C)C)CCCCCC(C)C)cc4)c3c(=C(C#N)c3nc4cc(Cl)ccc4o3)n2B(c2ccccc2)c2ccccc2)cc1` (stereo not drawn) [II-325]: in data set [1], the “Absorbance Ratio (500 nm/λmax)” value was “A (the absorbance ratio (500 nm/λmax) was 0.04 or lower)” and the “Absorption Maximum (nm)” value is 738 nm. In addition, the Solubility result in data set [2] was “A (the solubility in water at 23 °C was 0.1 mass % or lower)”.

For `CC(CCC(COc1ccc(-c2c3/c(=C(\C#N)c4cnc5cc(Cl)c(Cl)cc5n4)n(B(c4ccccc4)c4ccccc4)c(-c4ccc(O)cc4)c3/c(=C(\C#N)c3cnc4cc(Cl)c(Cl)cc4n3)n2B(c2ccccc2)c2ccccc2)cc1)C(C)CC(C)(C)C)CC(C)(C)C` (stereo not drawn) [Compound V-42], in data set [1], the “Absorbance Ratio (500 nm/λmax)” value was “A (the absorbance ratio (500 nm/λmax) was 0.04 or lower)” and the “Absorption Maximum (nm)” value was found to be 885 nm. Besides, the Solubility result in data set [2] was “A (the solubility in water at 23 °C was 0.1 mass % or lower)”.

In the case of `COc1ccc2sc(C(C#N)=c3c4c(-c5ccc(OCC(CCCCCCCC(C)C)CCCCCC(C)C)cc5)n(B(c5ccccc5)c5ccccc5)c(=C(C#N)c5nc6cc(OC)ccc6s5)c4c(-c4ccc(OCC(CCCCCCCC(C)C)CCCCCC(C)C)cc4)n3B(c3ccccc3)c3ccccc3)nc2c1` (stereo not drawn) [II-673], in data set [1], the “Absorbance Ratio (500 nm/λmax)” value is given as “A (the absorbance ratio (500 nm/λmax) was 0.04 or lower)” and the “Absorption Maximum (nm)” value is recorded as 794 nm. Further, in data set [2], the Solubility entry was “A (the solubility in water at 23 °C was 0.1 mass % or lower)”.

For the molecule `Cc1ccc2oc(C(C#N)=c3c4c(-c5ccc(OCC(CCCCCCCC(C)C)CCCCCC(C)C)cc5)n(B(c5ccccc5C)c5ccccc5C)c(=C(C#N)c5nc6cc(C)ccc6o5)c4c(-c4ccc(OCC(CCCCCCCC(C)C)CCCCCC(C)C)cc4)n3B(c3ccccc3C)c3ccccc3C)nc2c1` (stereo not drawn) [II-201], in data set [1], the “Absorbance Ratio (500 nm/λmax)” value was “A (the absorbance ratio (500 nm/λmax) was 0.04 or lower)” and the “Absorption Maximum (nm)” value is recorded as 737 nm. Besides, in data set [2], the Solubility entry was “A (the solubility in water at 23 °C was 0.1 mass % or lower)”.

Regarding `CC(CCC(COc1ccc(-c2c3c(=C(C#N)c4nc5ccccc5o4)n(B(c4ccccc4)c4ccccc4)c(-c4ccc(OCC(CCC(C)CC(C)(C)C)C(C)CC(C)(C)C)cc4)c3c(=C(C#N)c3nc4ccccc4o3)n2B(c2ccccc2)c2ccccc2)cc1)C(C)CC(C)(C)C)CC(C)(C)C` (stereo not drawn) [II-10], in data set [1], the “Absorbance Ratio (500 nm/λmax)” value is recorded as “A (the absorbance ratio (500 nm/λmax) was 0.04 or lower)” and the “Absorption Maximum (nm)” value was found to be 740 nm. Also, the Solubility entry in data set [2] was “A (the solubility in water at 23 °C was 0.1 mass % or lower)”.

For the molecule `CC(C)CCCCCCCC(CCCCCC(C)C)COc1cccc(-c2c3c(=C(C#N)c4nc5ccccc5o4)n(B4Oc5ccccc5O4)c(-c4cccc(OCC(CCCCCCCC(C)C)CCCCCC(C)C)c4)c3c(=C(C#N)c3nc4ccccc4o3)n2B2Oc3ccccc3O2)c1` (stereo not drawn) [II-91], in data set [1], the “λmax (nm)” value is 679 nm, the “Absorbance Ratio (500 nm/λmax)” value is listed as “A (the absorbance ratio (500 nm/λmax) was 0.04 or lower)” and the “Absorption Maximum (nm)” value was 679 nm. The Solubility result in data set [2] was “A (the solubility in water at 23 °C was 0.1 mass % or lower)”.
